Data published in US5254582A, “Antitumor compositions and methods” (Eli Lilly and Company, priority 1992, dated 1993).

What was measured:
[1] = test system: VRC5 human colon adenocarcinoma xenograft; experiment: percent inhibition of tumor growth and mortality in mice bearing VRC5 human colon adenocarcinoma xenografts, oral; assay type: in vivo; details: daily for 10 days
From the text: (§1) Two of the tumor models used for showing the antineoplastic activity of the sulfonylurea of this invention were the human colon xenografts, HXGC3 and VRC5. J. A. Houghton and D. M. Taylor, British Journal of Cancer, 37:213-223 (1978). These tumors were obtained from St. Jude's Children's Research Hospital and have been widely used as human tumor models.
(§2) First passage tumors were stored in liquid nitrogen, using standard techniques. The transplanted tumor was reestablished from the Tumor Bank every six months or as needed. The tumor was maintained by serial passage twice weekly in nude mice.
(§3) In the procedures utilized here, the tumor was removed from passage animals and minced into 1- to 3-mm cubic fragments using sterile techniques. Tumor pieces were checked for sterility using both Antibiotic medium 1 and Brain Heart Infusion (Difco, Detroit, Mi.). The tumor pieces were implanted into the recipient CDl Nu/Nu mice subcutaneously in an axillary site by trochar.
(§4) Drug therapy on the appropriate schedule was initiated seven days after tumor implantation. The compound being tested was mixed with 2.5% Emulphor EL620 from GAF Corporation (1:40 dilution in 0.9% saline). The total dosage volume for each administration was 0.5 mL. All animals were weighed at the beginning and end of administration of the subject compounds. Food and water were provided ad libitum.
(§5) Each control group and each dosage level of the treated groups consisted of 10 mice selected at random from the pool of implanted animals. The formulations were administered orally by gavage with the use of an 18-gauge needle. Compounds were dosed daily for 10 days.
(§6) The tumor was measured five days after treatment ended with two dimensional measurements (width and length) of the tumor taken using digital electronic calipers interfaced to a microcomputer. J. F. Worzalla, et al., Investigational New Drugs, 8:241-251 (1990). Tumor weights were calculated from these measurements using the following formula:
(§7) Tumor weight (mg)=[tumor length (mm)×[tumor width (mm)]^2 ]
(§8) At least one control group of an equal number of mice was treated with the same volume of 2.5% Emulphor only. The percent inhibition is determined by subtracting the ratio of the mean tumor size of the test group relative to the control group from one and multiplying the result by 100.
(§9) The results of several experiments in mice bearing the HXGC3 and VRC5 human colon adenocarcinomas when the instant compounds were administered orally are provided in Table I. In the Table, column 1 describes the particular human tumor xenograft being studied; column 2 gives the dosage level of the compound of Formula I in milligrams per kilogram of body weight; column 3 describes the percent inhibition of tumor growth; and column 4 tallies the number of mice which died during the course of the experiment relative to the total number of animals in the group.

[2] = test system: transplanted human tumors; experiment: activity against transplanted human tumors in mice bearing different xenograft tumors; assay type: in vivo
From the text: as §1

[3] = toxicological study in male Fischer 344 rats, morphological, hematological and pathological studies; assay type: in vivo, rat (male Fischer 344); details: rat, 65 to 1000 mg/kg, oral gavage, daily for 14 days
Protocol: For these experiments thirty male Fischer 344 rats were administered varying dosages of a formulation containing the compound of Formula I. These formulations contained between 65 and 1000 mg of the active ingredient per kilogram of body weight of the rat, in combination with a suitable excipient, usually containing 10% acacia. The compounds were administered orally by gavage. The compounds were dosed daily for 14 days. All animals were weighed at the beginning and end of administration of the subject compounds. Food and water were provided ad libitum.
Upon completion of the testing regimen, morphological and hematological studies were performed.

[4] = test system: HXGC3 human colon adenocarcinoma xenograft; experiment: percent inhibition of tumor growth and mortality in mice bearing HXGC3 human colon adenocarcinoma xenografts, oral; assay type: in vivo; details: daily for 10 days
From the text: as §1, §2, §3, §4, §5, §6, §7, §8, §9

[5] = in vivo; cited from earlier work
[6] = cited from earlier work
[7] = phase I clinical studies; cited from earlier work

O=C(Nc1ccc(Cl)c(Cl)c1)NS(=O)(=O)c1ccc2c(c1)CCO2 [compound of Formula I, N-[[(3,4-dichlorophenyl)amino]carbonyl]-2,3-dihydrobenzofuran-5-sulfonamide]
Percent Inhibition of tumor growth ([1]; 150 mg/kg): 97%
Toxic/Total (mice which died relative to total number in group) ([1]; 150 mg/kg): 0/10
Percent Inhibition of tumor growth ([1]; 300 mg/kg): 98%
Toxic/Total (mice which died relative to total number in group) ([1]; 300 mg/kg): 0/10
Percent Inhibition of tumor growth ([1]; 600 mg/kg): 100%
Toxic/Total (mice which died relative to total number in group) ([1]; 600 mg/kg): 0/10
Percent Inhibition of tumor growth ([1]; 1200 mg/kg): 100%
Toxic/Total (mice which died relative to total number in group) ([1]; 1200 mg/kg): 0/10
therapeutic index ([2]; in vivo): high therapeutic index
activity against transplanted human tumors in vivo ([2]; mice bearing different xenograft tumors): active against transplanted human tumors in vivo
hemolytic anemia [3]: absence of hemolytic anemia
pathological tissue effects [3]: effectiveness against tissues with a high mitotic index, including lymph nodes, thymus, gut, testis, and bone marrow
unexpected tissue changes [3]: Unexpected tissue changes were not observed
Percent Inhibition of tumor growth ([4]; 150 mg/kg): 81%
Toxic/Total (mice which died relative to total number in group) ([4]; 150 mg/kg): 0/10
Percent Inhibition of tumor growth ([4]; 300 mg/kg): 98%
Toxic/Total (mice which died relative to total number in group) ([4]; 300 mg/kg): 0/10
Percent Inhibition of tumor growth ([4]; 600 mg/kg): 98%
Toxic/Total (mice which died relative to total number in group) ([4]; 600 mg/kg): 0/10
Percent Inhibition of tumor growth ([4]; 1200 mg/kg): 99%
Toxic/Total (mice which died relative to total number in group) ([4]; 1200 mg/kg): 0/10

O=C(Nc1ccc(Cl)cc1)NS(=O)(=O)c1ccc2c(c1)CCC2 [sulofenur, N-(indan-5-sulfonyl)-N'-(4-chlorophenyl)urea]
dose-limiting toxicity [5]: hemolytic anemia
main urinary metabolites ([6]; animal trials, urine): mono-hydroxy- and mono-ketoindanyl metabolites
adsorption and metabolism ([6]; mice, rats, dogs, and monkeys): good adsorption and extensive metabolism
major metabolites in patients [7]: 1-hydroxy- and 1-ketoindansulfonylureas
